This data set in a line: in vitro. The conditions noted are these: human, hela cells, % viability.

`O=C(C1CC1)N1CCC(c2nc(Cc3cccs3)no2)C1` (centres unmarked) [CBK282980]: the viability – broadly, a read-out of living cells in per cent, often relative to untreated cells – at 28.5 h, 10 µM came to 89.6%.
The figure for `CC(=O)NC(Cc1c[nH]c2ccccc12)C(=O)N(C)Cc1cnn(C)c1` (centres unmarked) [CBK305274] is 84.3%; for `CN1C[C@H](C(N)=O)[C@@H](c2ccc(CN(C)C(=O)c3cccc(Oc4ccccc4)c3)cc2)C1` [CBK285572] it is 114%; for `CC(Sc1nnc(-c2ccc(Cl)cc2)n1CC(=O)O)C(=O)Nc1ccnn1C(C)C` (centres unmarked) [CBK296970] it is 96.9%.
The figure for `CC(=O)Nc1nonc1-c1nc2ccccc2n1CCC#N` [CBK062641] is 100%.
Turning to `O=C1c2ccccc2C(Nc2cccnc2)N1c1ccccn1` (centres unmarked) [CBK113239], the viability at 28.5 h, 10 µM came to 80.5%.
With `CCCn1ccnc1CNc1nc2c(s1)c(C)nn2C` [CBK307254], the viability at 28.5 h, 10 µM worked out at 84.3%.
Under `COc1ccccc1NC(=O)COc1cccc(Cl)c1Cl` [CBK266029] stands 106%; under `CCC(=O)N1CCC2(CC1)Nc1ccccc1-n1cccc12` [CBK283488], 108%.
Under `Cn1nnc2c(N3CCN(C(=O)c4ccccc4)CC3)ncnc21` [CBK287830] stands 90.6%; under `CCCn1ncc(CN2CCCC(c3cc4cccnc4[nH]3)C2)c1C` (centres unmarked) [CBK284957], 95.1%; under `O=C(NC1CCN(CC2(c3ccccc3)CC2)CC1)C1CCC1` [CBK285322], 98.9%.
The figure for `CN(CC1COCCO1)C(=O)c1cc(Cn2ccc3ccccc32)[nH]n1` (centres unmarked) [CBK307673] is 111%; for `CS(=O)(=O)Nc1ccc(CNC(=O)c2ccc3[nH]ccc3c2)cc1` [CBK161747] it is 93.5%; for `COc1ccc(CC(=O)N2CCNC(=O)C2Cc2ccccc2-c2ccccc2)cc1OC` (centres unmarked) [CBK285827] it is 102%.
Regarding `C1=CCC(CN(CCCn2ccnc2)CC2CCOC2)CC1` (centres unmarked) [CBK283217], the viability at 28.5 h, 10 µM worked out at 88.8%.
The figure for `NC(=O)CCNC(=O)c1ccc2[nH]ccc2c1` [CBK149082] is 102%.
Under `CSc1ncc(C(=O)N2CCC(N3CCCC(O)C3)CC2)cn1` (centres unmarked) [CBK307055] stands 106%.
The figure for `O=C(NCCCOc1ccccc1)N1CCN(S(=O)(=O)c2ccc(C(F)(F)F)cc2)CC1` [CBK296686] is 87.9%; for `O=C(c1cc(F)cc(F)c1)N1CCC(c2cccnc2)CC1` [CBK283892] it is 87.5%; for `CN(C(=O)Cn1cccn1)c1nc2c(s1)CC(c1ccccc1)CC2` (centres unmarked) [CBK305173] it is 102%.
`O=[N+]([O-])c1ccc(-c2nc3ccc(Br)cn3[n+]2[O-])cc1` [CBK262335]: the viability at 28.5 h, 10 µM worked out at 96.5%.
Under `Cc1c(Nc2cnn(C34CC5CC(CC(CC(=O)O)(C5)C3)C4)c(=O)c2Cl)c(=O)n(-c2ccccc2)n1C` [CBK268707] stands 89%; under `CS(=O)(=O)N(Cc1ccccc1)c1ccc(C(=O)Nc2ccccc2Cl)cc1` [CBK262745], 86.9%; under `N=C(N)NS(=O)(=O)c1ccc(N/C=C\C(=O)c2ccc3ccccc3c2)cc1` [CBK263374], 98.6%.
In the case of `Cn1nc(C2CCCN(C(=O)c3cccc(F)c3)C2)c2cccnc21` (centres unmarked) [CBK282155], the viability at 28.5 h, 10 µM came out at 85.8%.
Turning to `CN1CCN(c2nc(-c3ccc(-c4ccccc4)cc3)cnc2N)CC1` [CBK063421], the viability at 28.5 h, 10 µM was 106%.
The figure for `CNC(=O)c1sc2ccccc2c1C1CCN(S(=O)(=O)c2ccc(C)c(C)c2)C1` (centres unmarked) [CBK285877] is 85.8%; for `O=C1CCCN1CCC(=O)N1CCCC1c1nc2ccccc2[nH]1` (centres unmarked) [CBK283981] it is 84.2%; for `Cc1cc(C)c2nc(-c3ccccn3)cc(C(=O)Nc3ccc(S(=O)(=O)Nc4onc(C)c4C)cc3)c2c1` [CBK267775] it is 92.9%.
Under `O=C(NCCn1nc(-c2ccco2)ccc1=O)C1CCCC1` [CBK283707] stands 92%.
The figure for `CN1CCN(C(=O)c2ccc(-c3cccc(C(=O)NCCO)c3)nc2N(C)C)CC1` [CBK076581] is 91.8%; for `O=C(Cn1cccn1)Nc1ccc2c(c1)CN(Cc1ccccc1)C2` [CBK281829] it is 85.6%.
As for `Cc1cccc(-n2cnc3cc(C(=O)NCc4cccnc4)ccc32)c1` [CBK294455], the viability at 28.5 h, 10 µM was determined as 77.5%.
The figure for `COc1ccc(OCCNC(=O)c2ccc(C)nc2NCCCn2ccnc2)cc1` [CBK076385] is 117%.
Under `CN(Cc1ccc(Br)cc1Cl)C(=O)c1cn[nH]c1C1CCNC1` (centres unmarked) [CBK304785] stands 93.5%.
`O=S(=O)(Nc1nnn[nH]1)c1cccc(C(F)(F)F)c1` [CBK062377]: the viability at 28.5 h, 10 µM stood at 108%.
With `O=C(c1ccco1)c1coc2ccc(O)cc12` [CBK115570], the viability at 28.5 h, 10 µM worked out at 113%.
Under `CC(=O)c1ccc(-c2nc(-c3occc3C=O)cnc2N)cc1` [CBK064081] stands 89.9%; under `Cn1ncc2c1CCCC2NC(=O)N(CCO)Cc1ccccc1` (centres unmarked) [CBK306293], 86.1%.
For the molecule `O=C(NCCNc1ccc(Cl)cc1[N+](=O)[O-])c1c(F)cccc1F` [CBK269643], the viability at 28.5 h, 10 µM was found to be 97.6%.
Under `CC1CCN(Cc2ccc(-c3ccc(CNC(=O)c4ccc5c(c4)OC(F)(F)O5)s3)cc2)CC1` [CBK166113] stands 107%.
Consider `OCCN(CCO)c1cncc(-c2cccc(C(F)(F)F)c2)n1` [CBK037917], for which the viability at 28.5 h, 10 µM was 109%.
The figure for `Nc1ncc(-c2ccco2)nc1-c1ccc(C(=O)NCCO)cc1` [CBK064124] is 91.1%; for `COc1ccc(OC)c(NC(=O)CN2CCN(c3ccccn3)CC2)c1` [CBK262978] it is 83.7%.
Under `CCOCCNC(=O)c1coc(COc2ccc3sc(C)nc3c2)n1` [CBK306805] stands 109%; under `O=C(O)c1cccc(NC(=O)c2ccc(CSc3ccc(Br)cc3)cc2)c1` [CBK263226], 98.3%; under `Cc1cc(C)n(CC(=O)NCCCn2ccnc2C(C)C)c(=O)n1` [CBK307185], 92.4%.
The figure for `Cc1ccc(S(=O)(=O)Nc2nc3ccc(S(=O)(=O)N4CCOCC4)cc3s2)cc1` [CBK266988] is 88.8%.
For `CC(=O)N1CCN(c2ccccc2NC(=O)Cc2ccccc2C(=O)O)CC1` [CBK286802], the viability at 28.5 h, 10 µM worked out at 87.6%.
Under `NC(=O)c1c(NC(=O)C2CC(=O)OC23CCCCC3)sc2c1CCCCC2` (centres unmarked) [CBK264189] stands 102%; under `C[C@H](Nc1cncc(-c2cccnc2)n1)c1ccccc1` [CBK065807], 96.7%.
The figure for `NNC(=O)CCc1nc2ccc(O)cc2[nH]1` [CBK263633] is 93%.
Under `Cc1cc(CNC(=O)C(C)n2cnc3ccccc32)on1` (centres unmarked) [CBK282196] stands 90.7%.
On to `CCn1cc(C(=O)O)c(=O)c2cnc(N3CCNCC3)nc21` [CBK041585], for which the viability at 28.5 h, 10 µM amounted to 90.8%.
Under `C=CCc1cccc(Cl)c1OCCN1CCNCC1` [CBK266071G] stands 105%; under `O=C(Cc1nnn[nH]1)N1CCC(Cn2cncn2)(C2CCCCC2)CC1` [CBK136796], 92.2%; under `Cc1cccc(C2CCCN(C(=O)Nc3cnn(C)c3)C2)c1` (centres unmarked) [CBK306961], 102%.
As for `COC(=O)c1ccccc1NC(=O)c1ccc(-n2cnnn2)cc1` [CBK058360], the viability at 28.5 h, 10 µM is 91.1%.
The figure for `CCCNS(=O)(=O)c1ccc(OCC(=O)N2CCN(C)CC2)c(C)c1` [CBK270169] is 102%.
Under `Cc1ccc(CS(=O)(=O)N(CCO)C2CCC2)c(F)c1` [CBK304101] stands 82.2%; under `CC1Cc2cc(C(O)CN3CCCC3)ccc2N1C(=O)C1CC1` (centres unmarked) [CBK286440], 94.9%; under `CCN(CC)C(=O)N1CCC(c2cccnc2)CC1` [CBK283535], 99.9%.
In the case of `NS(=O)(=O)c1ccc(CNC(=O)c2cc(-c3ccncc3)nc3ccc(Cl)cc23)cc1` [CBK267770], the viability at 28.5 h, 10 µM stood at 101%.
The figure for `CCCCCn1c(-c2ccccc2)n[nH]c1=O` [CBK013288] is 83.3%; for `O=C(CC1Nc2ccccc2NC1=O)Nc1cccc(C(=O)O)c1` (centres unmarked) [CBK263155] it is 102%; for `Cc1ncncc1C(=O)N1CCc2sccc2C1c1ccccc1` (centres unmarked) [CBK281386] it is 113%.
Regarding `O=C(NC1CCCCC1)c1ccc(-c2ccccc2)nc1NCCc1ccccn1` [CBK076553], the viability at 28.5 h, 10 µM was found to be 101%.
As to `CCC(=O)N(C)C(CO)c1cc(OC)ccc1Br` (centres unmarked) [CBK304156], the viability at 28.5 h, 10 µM came out at 95.9%.
The figure for `CCOC(=O)N1CCC(Nc2nc3ccccc3nc2OCc2cc(C)on2)CC1` [CBK171825] is 89.2%; for `COc1ccc(CSc2nnc(-c3ccco3)n2N)cc1` [CBK267548] it is 90.3%.
Regarding `COc1ccc2[nH]cc(CC(=O)NCc3ccc(-c4csnn4)cc3)c2c1` [CBK149313], the viability at 28.5 h, 10 µM stood at 82.7%.
Take `CCc1nc2cc(NC(=O)CCCn3ccnc3C)ccc2n1CC` [CBK281609]: the viability at 28.5 h, 10 µM was found to be 101%.
The figure for `CCN(C)c1c(C)nc2c(OCc3ccccc3C(=O)OC)cccn12` [CBK147321] is 95.5%; for `Nc1nc(CCC(=O)N2Cc3cnn(Cc4ccc(F)cc4)c3C2)cs1` [CBK307019] it is 99.6%; for `CCOC(=O)N1CCC(NC(=O)N(CCN(C)C)Cc2ccccc2)CC1` [CBK155121] it is 109%.
The figure for `C=CCn1c(Cc2csc(NC(=O)c3cccc(Cl)c3)n2)n[nH]c1=S` [CBK295314] is 98.3%.
For the molecule `Cc1ccc(S(=O)(=O)NC2c3cccc4cccc(c34)C2Sc2nncn2N)cc1` (centres unmarked) [CBK265873], the viability at 28.5 h, 10 µM is 112%.
The figure for `Cc1nc(C)n(CC2CCCN(S(=O)(=O)c3cnc4ccsc4c3)C2)n1` (centres unmarked) [CBK306274] is 84.3%; for `COc1ccc(-c2nnc(SCC(=O)NN)n2-c2ccccc2)cc1OC` [CBK262264] it is 112%.

The record behind these values is publication PMC12040169 (PLOS Biology, 2025).
